Experimental data published in patent US5528046A, “Method and device for determining the location and number of fluorescent molecules” (Hamamatsu Photonics K.K., priority 1992, dated 1996).

Legend:
[1] = target: streptavidin (SA), tetramer (Streptomyces avidinii, UniProt P22629); conditions: cited from earlier work
bovine serum albumin = bovine serum albumin (Bos taurus, UniProt P02769); test: Affinity of bovine serum albumin for FLB (FLB absorption spectrum); type: binding; conditions: causes no changes to FLB spectrum
Sequence of bovine serum albumin (P02769 25-607): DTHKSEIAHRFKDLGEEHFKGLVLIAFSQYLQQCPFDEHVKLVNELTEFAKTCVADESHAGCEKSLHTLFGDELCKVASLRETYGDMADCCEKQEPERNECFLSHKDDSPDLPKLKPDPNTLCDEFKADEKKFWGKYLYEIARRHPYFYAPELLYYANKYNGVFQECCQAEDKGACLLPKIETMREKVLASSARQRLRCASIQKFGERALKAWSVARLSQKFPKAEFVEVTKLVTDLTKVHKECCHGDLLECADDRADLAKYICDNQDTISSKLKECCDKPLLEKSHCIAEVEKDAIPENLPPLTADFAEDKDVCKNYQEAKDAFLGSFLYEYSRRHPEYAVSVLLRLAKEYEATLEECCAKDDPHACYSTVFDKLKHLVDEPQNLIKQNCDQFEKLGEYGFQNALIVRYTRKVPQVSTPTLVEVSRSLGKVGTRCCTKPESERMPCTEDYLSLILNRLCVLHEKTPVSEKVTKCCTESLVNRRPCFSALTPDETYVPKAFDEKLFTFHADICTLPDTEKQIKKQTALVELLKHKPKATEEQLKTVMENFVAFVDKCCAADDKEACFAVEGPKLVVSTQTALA
Source text: Foster and Konig report that is has been found based on changes of absorption spectra of some organic dye molecules (fluorescent molecules) containing a fluorescent substrate in water that the organic dye molecules form dimers at high concentration (10^-3 -10^-1 M). Koizumi and Mataga report a change of absorption spectrum in an aqueous solution containing fluorescent molecules in the presence of electrolytic polymers. Based on these studies, it is considered that changes of the spectra are caused by the cohesive effect of the fluorescent molecules to the polymers. Considering these past studies and the bonding between SA and B due to their high affinity, it is considered that similarly sufficient local adhesion effects of FLB to SA can be present. This is further optical evidence of the interaction between SA and FLB. For example, bovine serum albumin, which has no affinity with FLB, causes no changes to FLB spectrum.

Sequence of streptavidin (SA), tetramer (P22629 25-183): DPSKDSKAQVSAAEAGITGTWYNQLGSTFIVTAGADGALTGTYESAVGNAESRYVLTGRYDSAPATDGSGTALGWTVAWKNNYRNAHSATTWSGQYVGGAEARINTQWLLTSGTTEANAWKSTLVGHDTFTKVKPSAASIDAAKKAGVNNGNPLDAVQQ

SMILES | lifetime of the SA/B complex [1] | affinity with FLB (bovine serum albumin)
O=C(O)CCCC[C@@H]1SC[C@@H]2NC(=O)N[C@@H]21 [B, biotin] | about 2.9 days | 
O=C(CCCCCNC(=O)CCCC[C@@H]1SC[C@@H]2NC(=O)N[C@@H]21)NCCCCCNC(=S)Nc1ccc2c(c1)C(=O)OC21c2ccc(O)cc2Oc2cc(O)ccc21 [FLB, fluorescein biotin] |  | no affinity
